For one test, the target named is human GCGR (Homo sapiens (Human), UniProt P47871). Put plainly: Cellular functional assay, cAMP readout (glucagon-stimulated cAMP in HEK293 cells expressing human GCGR). The class given is cell-based. Particulars: hGluc-1 HEK cells, LANCE TR-FRET, IC50 converted to Ki, average if tested more than once. Put shortly: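 HEK293 cells stably transfected with full-length human GCGR were exposed to compound for 30 min before a 5-min challenge with […] (final) glucagon. Readout was TR-FRET (LANCE) cAMP versus standard curve; IC50s fitted by non-linear regression and converted to Ki values.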
A general note: Time-resolved FRET reads energy transfer from a long-lived donor to a nearby acceptor.

In test [1] the target is human glucagon receptor (GCGR) (Homo sapiens (Human), UniProt P47871). The test can be described thus: Inhibition of 125I-glucagon binding to membranes from HEK293 cells expressing the human glucagon receptor. As to conditions: membranes of hGluc-1 HEK cells, 125I-glucagon 0.3 nM, 2 hours room temperature; IC50 converted to Ki; average if tested more than once. The essentials: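 Compound displacement of ¹²⁵I-glucagon (0.3 nM) was run for 2 h at room temperature in 50 mM HEPES pH 7.4 with 5 mM MgCl2, 1 mM CaCl2 and 0.2% BSA, using 6 μg/well membranes from stably transfected hGCGR HEK293 cells. Filter-bound counts gave IC50s, expressed as Ki.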

Molecules are shown by their SMILES.

Sequence of human glucagon receptor (GCGR) (P47871 26-477): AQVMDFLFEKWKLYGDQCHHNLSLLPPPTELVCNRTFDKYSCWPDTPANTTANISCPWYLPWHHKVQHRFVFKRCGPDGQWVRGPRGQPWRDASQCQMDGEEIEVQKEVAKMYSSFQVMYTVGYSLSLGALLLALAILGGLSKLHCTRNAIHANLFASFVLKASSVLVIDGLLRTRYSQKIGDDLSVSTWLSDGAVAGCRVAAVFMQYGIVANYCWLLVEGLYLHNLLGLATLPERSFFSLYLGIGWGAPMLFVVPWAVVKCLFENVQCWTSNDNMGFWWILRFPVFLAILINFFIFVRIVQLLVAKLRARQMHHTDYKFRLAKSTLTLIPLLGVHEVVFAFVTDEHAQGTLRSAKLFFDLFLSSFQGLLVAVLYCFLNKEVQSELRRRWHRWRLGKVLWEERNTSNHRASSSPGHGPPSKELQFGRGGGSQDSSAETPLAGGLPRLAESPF
Sequence of human GCGR (P47871 26-477): as above

On to `O=C(O)CCNC(=O)c1ccc(-c2cc(C(F)(F)F)ccc2CNc2ccc(-c3cccc(F)c3)cc2)cn1` [Compound 62, 3-(5-(2-(((3′-fluoro-[1,1′-biphenyl]-4-yl)amino)methyl)-5-(trifluoromethyl)phenyl)picolinamido)propanoic acid], for which the Ki (commonly a dissociation constant, usually derived from enzyme kinetics or from competition with a known ligand) on human GCGR worked out at 175 nM; in test [1], 37.4 nM.
The like results for `O=C(O)CCNC(=O)c1ccc(-c2cc(Cl)ccc2CNc2ccc(-c3ccc(F)cc3F)c(Cl)c2)cn1` [Compound 63, 3-(5-(5-chloro-2-(((2-chloro-2′,4′-difluoro-[1,1′-biphenyl]-4-yl)amino)methyl)phenyl)picolinamido)propanoic acid] were, in that order, 188 nM and 22.6 nM.
The like results for `Cc1cccc(-c2ccc(C(=O)NCCC(=O)O)nc2)c1CNc1ccc(-c2ccc(Cl)cc2)cc1` [Compound 65, 3-(5-(2-(((4′-chloro-[1,1′-biphenyl]-4-yl)amino)methyl)-3-methylphenyl)picolinamido)propanoic acid] were, in that order, 390 nM and 139 nM.
The like results for `N#Cc1cccc(CNc2ccc(-c3ccc(Cl)cc3)cc2)c1-c1ccc(C(=O)NCCC(=O)O)nc1` [Compound 66, 3-(5-(2-(((4′-chloro-[1,1′-biphenyl]-4-yl)amino)methyl)-6-cyanophenyl)picolinamido)propanoic acid] were, in that order, 1850 nM and 68.7 nM.
On to `O=C(O)CCNC(=O)c1ccc(-c2cc(C(F)(F)F)cc(Cl)c2CNc2ccc(-c3ccc(Cl)cc3)cc2)cn1` [Compound 67, 3-(5-(3-chloro-2-(((4′-chloro-[1,1′-biphenyl]-4-yl)amino)methyl)-5-(trifluoromethyl)phenyl)picolinamido)propanoic acid], for which the values for the Ki (at human GCGR; in test [1]) were 12.2 nM and 18.8 nM, respectively.
The like results for `Cc1ccc(CNc2ccc(-c3ccc(Cl)cc3)cc2)c(-c2ccc(C(=O)NCCC(=O)O)nc2)c1` [Compound 68, 3-(5-(2-(((4′-chloro-[1,1′-biphenyl]-4-yl)amino)methyl)-5-methylphenyl)picolinamido)propanoic acid] were, in that order, 151 nM and 40 nM.
Regarding `Cc1cccc(CNc2ccc(-c3ccc(Cl)cc3)cc2)c1-c1ccc(C(=O)NCCC(=O)O)nc1` [Compound 69, 3-(5-(2-(((4′-chloro-[1,1′-biphenyl]-4-yl)amino)methyl)-6-methylphenyl)picolinamido)propanoic acid], the values for the Ki (at human GCGR; in test [1]) were 500 nM and 85.2 nM, respectively.
Regarding `CS(=O)(=O)c1ccc(CNc2ccc(-c3ccc(Cl)cc3)cc2)c(-c2ccc(C(=O)NCCC(=O)O)nc2)c1` [Compound 70, 3-(5-(2-(((4′-chloro-[1,1′-biphenyl]-4-yl)amino)methyl)-5-(methylsulfonyl)phenyl)picolinamido)propanoic acid], the Ki is above 10400 nM at human GCGR and 52.2 nM in test [1].
The like results for `O=C(O)CCNC(=O)c1ccc(-c2cc(C(F)(F)F)cc(C(F)(F)F)c2CNc2ccc(-c3ccc(Cl)cc3)cc2)cn1` [Compound 71, 3-(5-(2-(((4′-chloro-[1,1′-biphenyl]-4-yl)amino)methyl)-3,5-bis(trifluoromethyl)phenyl)picolinamido)propanoic acid] were, in that order, 17.3 nM and 31.3 nM.
The like results for `Cc1cc(Cl)ccc1-c1ccc(NCc2c(Cl)cc(C(F)(F)F)cc2-c2ccc(C(=O)NCCC(=O)O)nc2)cc1` [Compound 73, 3-(5-(3-chloro-2-(((4′-chloro-2′-methyl-[1,1′-biphenyl]-4-yl)amino)methyl)-5-(trifluoromethyl)phenyl)picolinamido)propanoic acid] were, in that order, 3.7 nM and 19.5 nM.
On to `O=C(O)CCNC(=O)c1ccc(-c2cc(C(F)(F)F)cc(Cl)c2CNc2ccc(-c3ccc(Cl)cc3)c(Cl)c2)cn1` [Compound 74, 3-(5-(3-chloro-2-(((2,4′-dichloro-[1,1′-biphenyl]-4-yl)amino)methyl)-5-(trifluoromethyl)phenyl)picolinamido)propanoic acid], for which the figures for the Ki (on human GCGR; in test [1]) were 7.1 nM and 14.9 nM, respectively.
The like results for `Cc1cc(NCc2c(Cl)cc(C(F)(F)F)cc2-c2ccc(C(=O)NCCC(=O)O)nc2)ccc1-c1ccc(Cl)cc1` [Compound 75, 3-(5-(3-chloro-2-(((4′-chloro-2-methyl-[1,1′-biphenyl]-4-yl)amino)methyl)-5-(trifluoromethyl)phenyl)picolinamido)propanoic acid] were, in that order, 6.7 nM and 27.8 nM.
For `Cc1cc(Cl)ccc1-c1ccc(NCc2cc(Cl)c(C(F)(F)F)cc2-c2ccc(C(=O)NCCC(=O)O)nc2)cc1` [Compound 77, 3-(5-(4-chloro-2-(((4′-chloro-2′-methyl-[1,1′-biphenyl]-4-yl)amino)methyl)-5-(trifluoromethyl)phenyl)picolinamido)propanoic acid], the Ki stood at 22.4 nM on human GCGR and 24.2 nM in test [1].
The like results for `O=C(O)CCNC(=O)c1ccc(-c2cc(C(F)(F)F)c(Cl)cc2CNc2ccc(-c3ccc(Cl)cc3)c(Cl)c2)cn1` [Compound 78, 3-(5-(4-chloro-2-(((2,4′-dichloro-[1,1′-biphenyl]-4-yl)amino)methyl)-5-(trifluoromethyl)phenyl)picolinamido)propanoic acid] were, in that order, 25 nM and 24 nM.
The like results for `Cc1cc(NCc2cc(Cl)c(C(F)(F)F)cc2-c2ccc(C(=O)NCCC(=O)O)nc2)ccc1-c1ccc(Cl)cc1` [Compound 79, 3-(5-(4-chloro-2-(((4′-chloro-2-methyl-[1,1′-biphenyl]-4-yl)amino)methyl)-5-(trifluoromethyl)phenyl)picolinamido)propanoic acid] were, in that order, 31.6 nM and 24 nM.
The like results for `O=C(O)CCNC(=O)c1ccc(-c2cc(C(F)(F)F)c(Cl)cc2CNc2ccc(-c3ccc(Cl)cc3)cc2)cn1` [Compound 80, 3-(5-(4-chloro-2-(((4′-chloro-[1,1′-biphenyl]-4-yl)amino)methyl)-5-(trifluoromethyl)phenyl)picolinamido)propanoic acid] were, in that order, 47.4 nM and 28.6 nM.
In the case of `O=C(O)CCNC(=O)c1ccc(-c2cc(C(F)(F)F)c(Cl)cc2CNc2ccc(-c3ccc(Cl)cc3Cl)cc2)cn1` [Compound 82, 3-(5-(4-chloro-2-(((2′,4′-dichloro-[1,1′-biphenyl]-4-yl)amino)methyl)-5-(trifluoromethyl)phenyl)picolinamido)propanoic acid], the Ki on human GCGR was 34.6 nM; in test [1], 33.8 nM.
The like results for `O=C(O)CCNC(=O)c1ccc(-c2cc(Cl)ccc2CNc2ccc(-c3ccc(F)cc3)c(F)c2)cn1` [Compound 88, 3-(5-(5-chloro-2-(((2,4′-difluoro-[1,1′-biphenyl]-4-yl)amino)methyl)phenyl)picolinamido)propanoic acid] were, in that order, 370 nM and 44.3 nM.
The like results for `O=C(O)CCNC(=O)c1ccc(-c2cc(Cl)ccc2CNc2ccc(-c3ccc(F)cc3F)c(F)c2)cn1` [Compound 89, 3-(5-(5-chloro-2-(((2,2′,4′-trifluoro-[1,1′-biphenyl]-4-yl)amino)methyl)phenyl)picolinamido)propanoic acid] were, in that order, 550 nM and 60.6 nM.
For the compound `O=C(O)CCNC(=O)c1ccc(-c2cc(Cl)ccc2CNc2ccc(-c3ccc(C(F)(F)F)cc3)c(F)c2)cn1` [Compound 90, 3-(5-(5-chloro-2-(((2-fluoro-4′-(trifluoromethyl)-[1,1′-biphenyl]-4-yl)amino)methyl)phenyl)picolinamido)propanoic acid], the values for the Ki (on human GCGR; in test [1]) were 281 nM and 33.6 nM, respectively.
Regarding `O=C(O)CCNC(=O)c1ccc(-c2cc(Cl)ccc2CNc2ccc(-c3ccc(Cl)cc3)c(F)c2)cn1` [Compound 91, 3-(5-(5-chloro-2-(((4′-chloro-2-fluoro-[1,1′-biphenyl]-4-yl)amino)methyl)phenyl)picolinamido)propanoic acid], the Ki turned out to be 295 nM at human GCGR and 33.4 nM in test [1].
Turning to `O=C(O)CCNC(=O)c1ccc(-c2cc(Cl)ccc2CNc2ccc(-c3ccc(Cl)cc3Cl)c(F)c2)cn1` [Compound 92, 3-(5-(5-chloro-2-(((2′,4′-dichloro-2-fluoro-[1,1′-biphenyl]-4-yl)amino)methyl)phenyl)picolinamido)propanoic acid], the Ki at human GCGR was 114 nM; in test [1], 19.4 nM.
The like results for `O=C(O)CCNC(=O)c1ccc(-c2cc(Cl)ccc2CNc2ccc(-c3ccc(Cl)c(F)c3)c(F)c2)cn1` [Compound 93, 3-(5-(5-chloro-2-(((4′-chloro-2,3′-difluoro-[1,1′-biphenyl]-4-yl)amino)methyl)phenyl)picolinamido)propanoic acid] were, in that order, 295 nM and 53.4 nM.
The like results for `O=C(O)CCNC(=O)c1ccc(-c2cc(F)c(F)cc2C(=O)Nc2ccc(-c3ccc(Cl)cc3Cl)cc2)cn1` [Compound 94, 3-(5-(2-((2′,4′-dichloro-[1,1′-biphenyl]-4-yl)carbamoyl)-4,5-difluorophenyl)picolinamido)propanoic acid] were, in that order, 78.5 nM and 33.5 nM.
In the case of `O=C(O)CCNC(=O)c1ccc(-c2cc(F)c(F)cc2C(=O)Nc2ccc(-c3ccc(F)cc3)cc2)cn1` [Compound 95, 3-(5-(4,5-difluoro-2-((4′-fluoro-[1,1′-biphenyl]-4-yl)carbamoyl)phenyl)picolinamido)propanoic acid], the inhibitory constant (Ki) was determined as 600 nM at human GCGR and 139 nM in test [1].
